Results from US8530646B2, “Oxazolidinone derivative having 7-membered hetero ring” (Research Foundation Itsuu Laboratory, priority 2007, dated 2013).

Tests used:
Assay in all cases: MIC determination by CLSI standard method (broth dilution, Mueller Hinton Broth)
Format in all cases: cell-based
Settings in all cases: cation-adjusted Mueller Hinton Broth, inoculum about 5×10^5 CFU/mL, read-out: Minimal inhibitory concentration (MIC)
[1] = system: MRSA (methicillin-resistant Staphylococcus aureus)
Protocol: (§1) The compounds of the invention were tested for antimicrobial activity.
(§2) Minimal inhibitory concentration (MIC: μg/ml) against different strains of bacteria was determined according to the standard method recommended by CLSI (clinical and laboratory standards institute). Samples were prepared by dissolving a test compound solution into DMSO (1280 μg/mL), followed by two fold dilution with DMSO. The sample was added to a bacteria suspension at the concentration of 5%, and MIC was determined. Mueller Hinton Broth was adjusted for cation concentration and used as a culture media. The inoculation concentration was about 5×10^5 CFU/mL.

[2] = system: PRSP (penicillin resistant Streptococcus pneumoniae)
Protocol: as §1, §2

[3] = system: VRE (vancomycin resistance enterococcus)
Protocol: as §1, §2

[4] = system: VISA (vancomycin-intermediate Staphylococcus aureus)
Protocol: as §1, §2

Measured: MIC

CC(=S)NC[C@H]1CN(c2cc(F)c(N3CCON(C(=O)c4ccccc4O)CC3)c(F)c2)C(=O)O1 [Example B38]
≤ 1 µg/mL: all assays above

COC(=S)NC[C@H]1CN(c2ccc(N3CCNN(C(=O)Cn4cc(Cl)cn4)CC3)c(F)c2)C(=O)O1 [Example A91]
≤ 1 µg/mL: all assays above
